Experimental findings from patent US6441028B2, “Microbicidal compositions” (Bayer Aktiengesellschaft, priority 1995, dated 2002) are described below.

For one assay, the system named is Phytophthora. The following applies: mixture of the labelled component I, in particular in combination with metalaxyl (II A), benalaxyl (II D) or R-metalaxyl (II B); potato (Bintje); a) spray 0.02% of active ingredient, b) 0.002% based on soil volume; 5 days incubation.
A further assay concerns Erysiphe graminis. Nature of the assay: Activity against Erysiphe graminis in barley (residual-protective and systemic action). It is filed as in vivo. The note with it: mixture of the labelled component I with component II; barley; a) spray 0.02% of active ingredient, b) 0.002% based on soil volume; assessed 12 days after infection. The method, then: The infected plants are placed in a greenhouse at 22°. The fungus infestation is assessed 12 days after the infection. […] 48 hours later, the plants are dusted with conidia of the fungus. The infected plants are placed in a greenhouse at 22°. The fungus infestation is assessed 12 days after the infection.

For a further assay, the system named is Puccinia recondita. The experiment in a line: Activity against Puccinia recondita in wheat (residual-protective and systemic action). It is filed as in vivo. The note with it: mixture of the labelled component I with component II; wheat; a) spray 0.02% of active ingredient, b) 0.006% based on soil volume; assessed 12 days after infection.
The test system of another assay is Fusarium nivale. Nature of the assay: Activity against Fusarium nivale in rye (seed dressing, field). It is filed as in vivo. The note with it: mixture of the labelled component I with component II, rye cv. Tetrahell seed dressing, 20 or 6 ppm of a.i. based on seed weight. The method, then: which has been infected naturally with Fusarium nivale is dressed with the test fungicide in a roller mixer, the following concentrations being used: 20 or 6 ppm of a.i. (based on the seed weight). The infected and treated rye is sown in the open in October in plots of 3 m length and 6 seed rows, using a seed drill. 3 replications per concentration. Until the disease level is evaluated, the experimental field is subjected to the field conditions of normal crop management (preferably in a region with unbroken snow cover during the winter months). To assess the phytotoxicity, seedling emergence is scored in autumn and plant density/tillering in spring. To assess the activity of the active ingredient, the percentage of Fusarium-infected plants is evaluated early in the year, immediately after the snows have melted.

A further assay deals with Plasmopara viticola. The experiment in a line: Activity against Plasmopara viticola in grapevines. The following applies: mixture of the labelled component I with component II = ofurace (II E), oxadixyl (II F), or in particular metalaxyl (II A) or R-metalaxyl (II B); grapevine seedlings; 0.02% of active ingredient; assessed 6 days after infection.
For a further assay, the system named is Botrytis cinerea. Nature of the assay: Activity against Botrytis cinerea on apple fruits (residual-protective action). Format: in vivo. The note with it: mixture of the labelled component I with component II = furalaxyl (II C), metalaxyl (II A) or R-metalaxyl (II B); damaged apples; 0.02% of active ingredient; one week incubation. The method, then: The treated fruits are subsequently inoculated with a spore suspension of the fungus and incubated for one week at high atmospheric humidity and approximately 20° C. The fungicidal activity of the test substance is deduced from the number of the sites of damage where rotting has been observed.

In the next assay the test system is Phytophthora infestans. Format: in vivo. The following applies: mixture of the labelled component I with component II = oxadixyl (II F), ofurace (II E), or in particular metalaxyl (II A) or R-metalaxyl (II B); tomato cv. Roter Gnom; a) curative 200 ppm, b) preventive-systemic 60 ppm relative to soil volume.
The subject of a further assay is Cercospora arachidicola. The experiment in a line: Residual-protective action against Cercospora arachidicola in groundnuts. The following applies: mixture of the labelled component I with component II; groundnut plants; 0.02% of active ingredient; assessed 12 days after infection. Format: in vivo. Here is the method: The plants are incubated for 72 hours at 21° and high atmospheric humidity and subsequently placed in a greenhouse until the typical foliar lesions appear. The activity of the active ingredient is assessed 12 days after the infection on the basis of number and size of the foliar lesions.

The next assay concerns Septoria nodorum. The experiment in a line: Activity against Septoria nodorum in wheat. It is filed as in vivo. The following applies: mixture of the labelled component I with component II; wheat 3-leaf stage; 60 ppm of a.i.; assessed 13 days after infection. The method, then:
13 days after the infection, the fungus infestation is assessed.

Method for Plasmopara viticola: Grapevine seedlings at the 4-to-5-leaf stage are sprayed to drip point with an aqueous spray mixture prepared with a wettable powder of the active ingredient mixture (0.02% of active ingredient) and, 24 hours later, infected with a sporangia suspension of the fungus. The fungus infestation is assessed 6 days after infection, during which time a relative atmospheric humidity of 95 to 100% and a temperature of 20° are maintained.

On to `CON=C(C(=O)OC)c1ccccc1CON=C(C)c1ccc2c(c1)OC(F)(F)O2` [(6), methyl 2-[α-{[(α-methyl-3,4-(difluoromethylenedioxy)benzyl)imino]-oxy}-o-tolyl]glyoxylate O-methyloxime], for which the “synergistic effect of active ingredient mixture (fungus infestation)” value (from here on “synergistic effect … (fungus infestation)”) with Phytophthora is listed as “good synergistic effect”; in the assay on Erysiphe graminis, “good synergistic effect”; in the assay on Puccinia recondita, “good synergistic effect”; in the assay with Plasmopara viticola, “marked synergistic effect”. In the assay with Fusarium nivale, the “synergistic effect of active ingredient mixture (percentage of Fusarium-infected plants)” value was “good synergistic effect”.

Consider `CON=C(C(=O)OC)c1ccccc1CON=C(c1ccc(F)cc1)C1CC1` [(09), methyl 2-[α-{[(α-cyclopropyl-4-fluorobenzyl)imino]oxy}-o-tolyl]glyoxylate O-methyloxime], for which the “synergistic effect … (fungus infestation)” value in the assay with Erysiphe graminis and with Puccinia recondita was “good synergistic effect” each time. For the same molecule, the “activity of active ingredient mixture (number of sites of damage with rotting)” value in the assay with Botrytis cinerea is “markedly increased activity”.

`COC=C(C(=O)OC)c1ccccc1CON=C(C)c1ccc2c(c1)OCO2` [(12), methyl 3-methoxy-2-[α-{[(α-methyl-3,4-methylenedioxybenzyl)imino]oxy}-o-tolyl]acrylate]: the “synergistic effect … (fungus infestation)” value with Phytophthora is “good synergistic effect”; with Plasmopara viticola, “marked synergistic effect”. Besides, the “synergistic effect of active ingredient mixture (number and size of foliar lesions)” value in the assay with Phytophthora infestans is given as “good synergistic effect”.

For `CON=C(C(=O)OC)c1ccccc1CON=C(c1ccc(Cl)cc1)C1CC1` [(15), methyl 2-[α-{[(α-cyclopropyl-4-chlorobenzyl)imino]oxy}-o-tolyl]glyoxylate O-methyloxime], the “synergistic effect … (fungus infestation)” value was “good synergistic effect” with Phytophthora, “good synergistic effect” with Erysiphe graminis, “good synergistic effect” in the assay on Puccinia recondita and “marked synergistic effect” in the assay on Plasmopara viticola. Besides, in the assay with Botrytis cinerea, the “activity of active ingredient mixture (number of sites of damage with rotting)” value is reported as “markedly increased activity”. Also, the “synergistic effect of active ingredient mixture (number and size of foliar lesions)” value in the assay with Phytophthora infestans is listed as “good synergistic effect”. Besides, the “activity of active ingredient mixture (number and size of foliar lesions)” value (“activity … (number and size of foliar lesions)” below) with Cercospora arachidicola was “markedly increased activity”.

As for `COC=C(C(=O)OC)c1ccccc1CON=C(C)c1cccc(OC(F)(F)F)c1` [(18), methyl 3-methoxy-2-[α-{[(α-methyl-3-trifluoromethoxybenzyl)imino]oxy}-o-tolyl]acrylate], the “synergistic effect … (fungus infestation)” value in the assay on Phytophthora is on record as “good synergistic effect”; in the assay with Erysiphe graminis it was “good synergistic effect”; in the assay with Puccinia recondita it was “good synergistic effect”; with Plasmopara viticola, “marked synergistic effect”. Also, the “activity of active ingredient mixture (number of sites of damage with rotting)” value in the assay with Botrytis cinerea is recorded as “markedly increased activity”. The “synergistic effect of active ingredient mixture (percentage of Fusarium-infected plants)” value in the assay with Fusarium nivale is on record as “good synergistic effect”. In addition, the “activity … (number and size of foliar lesions)” value with Cercospora arachidicola is listed as “markedly increased activity”.

For the molecule `COC=C(C(=O)OC)c1ccccc1CON=C(C)c1cccc(C(F)(F)F)c1` [(24), methyl 3-methoxy-2-[α-{[(α-methyl-3-trifluoromethylbenzyl)imino]oxy}-o-tolyl]acrylate], the “synergistic effect … (fungus infestation)” value in the assay on Phytophthora and in the assay with Erysiphe graminis was “good synergistic effect” in each case. In addition, the “activity of active ingredient mixture (number of sites of damage with rotting)” value in the assay on Botrytis cinerea is “markedly increased activity”. Also, in the assay on Phytophthora infestans, the “synergistic effect of active ingredient mixture (number and size of foliar lesions)” value is “good synergistic effect”. Also, the “activity of active ingredient mixture (fungus infestation)” value (“activity … (fungus infestation)” below) in the assay with Septoria nodorum is “markedly increased activity”. In addition, the “activity … (number and size of foliar lesions)” value in the assay with Cercospora arachidicola is given as “markedly increased activity”.

For the molecule `CON=C(C(=O)OC)c1ccccc1CON=C(C)c1ccc(Cl)cc1` [(25), methyl 2-[α-{[(α-methyl-4-chlorobenzyl)imino]oxy}-o-tolyl]glyoxylate O-methyloxime], the “synergistic effect … (fungus infestation)” value in the assay on Erysiphe graminis was “good synergistic effect”. Also, the “activity … (fungus infestation)” value in the assay on Septoria nodorum is recorded as “markedly increased activity”.

As for `COC=C(C(=O)OC)c1ccccc1CON=C(C)c1ccc(Cl)cc1` [(26), methyl 3-methoxy-2-[α-{[(α-methyl-4-chlorobenzyl)imino]oxy}-o-tolyl]acrylate], the “synergistic effect of active ingredient mixture (percentage of Fusarium-infected plants)” value in the assay with Fusarium nivale is on record as “good synergistic effect”. Further, the “activity … (number and size of foliar lesions)” value in the assay on Cercospora arachidicola was “markedly increased activity”.

Take `COC=C(C(=O)OC)c1ccccc1CON=C(C)c1ccc2c(c1)OC(F)(F)O2` [(29), methyl 3-methoxy-2-[α-{[(α-methyl-3,4-(difluoromethylenedioxy)benzyl)-imino]oxy}-o-tolyl]acrylate]: the “synergistic effect … (fungus infestation)” value in the assay on Puccinia recondita was “good synergistic effect”.

As to `CON=C(C(=O)OC)c1ccccc1CON=C(C)c1cccc(C(F)(F)F)c1` [(35), methyl 2-[α-{[(α-methyl-3-trifluoromethylbenzyl)imino]oxy}-o-tolyl]glyoxylate O-methyloxime], the “synergistic effect … (fungus infestation)” value with Phytophthora is “good synergistic effect”; in the assay on Erysiphe graminis it was “good synergistic effect”; with Puccinia recondita, “good synergistic effect”; in the assay on Plasmopara viticola, “marked synergistic effect”. Further, in the assay with Botrytis cinerea, the “activity of active ingredient mixture (number of sites of damage with rotting)” value is “markedly increased activity”. Further, in the assay with Phytophthora infestans, the “synergistic effect of active ingredient mixture (number and size of foliar lesions)” value is listed as “good synergistic effect”. Moreover, the “activity … (fungus infestation)” value in the assay with Septoria nodorum is “markedly increased activity”.

With `COC=C(C(=O)OC)c1ccccc1CON=C(c1ccc(Cl)cc1)C1CC1` [(36), methyl 3-methoxy-2-[α-{[(α-cyclopropyl-4-chlorobenzyl)imino]oxy}-o-tolyl]acrylate], the “synergistic effect … (fungus infestation)” value in the assay with Erysiphe graminis is reported as “good synergistic effect”. Moreover, the “activity of active ingredient mixture (number of sites of damage with rotting)” value in the assay with Botrytis cinerea was “markedly increased activity”. Also, the “synergistic effect of active ingredient mixture (number and size of foliar lesions)” value in the assay with Phytophthora infestans was “good synergistic effect”. Further, the “activity … (fungus infestation)” value in the assay with Septoria nodorum was “markedly increased activity”. In the assay with Cercospora arachidicola, the “activity … (number and size of foliar lesions)” value is recorded as “markedly increased activity”.

Consider `CON=C(C(=O)OC)c1ccccc1CON=C(c1ccc(C(F)(F)F)cc1)C1CC1` [(37)], for which, in the assay on Erysiphe graminis, the “synergistic effect … (fungus infestation)” value was “good synergistic effect”.

Consider `CON=C(C(=O)OC)c1ccccc1CON=C(c1ccc(OC(F)(F)F)cc1)C1CC1` [(38), methyl 2-[α-{[(α-cyclopropyl-4-trifluoromethoxybenzyl)imino]oxy}-o-tolyl]glyoxylate O-methyloxime], for which, in the assay with Fusarium nivale, the “synergistic effect of active ingredient mixture (percentage of Fusarium-infected plants)” value is “good synergistic effect”. Also, the “activity … (number and size of foliar lesions)” value with Cercospora arachidicola is “markedly increased activity”.
